Measured values as given in a melting point compilation (Tetko et al.; mined from patent text by program, amines drawn as free bases though some values may be those of a salt).

Row | SMILES | melting point [°C]
1 | CC(C)(C)OC(=O)N1CCC(CI)CC1 | 58 to 59
2 | COc1ccc(C=C(C=O)C(C=O)=Cc2ccc(OC)c(OC)c2)cc1OC | 149 to 150
3 | O=C(Nc1ccc(N(Cc2ccccc2)C(=O)OCc2ccccc2)c(F)c1)OCc1ccccc1 | 101 to 102
4 | CCCCCCCCCCCCCCCCc1nc(N(C)C)nc(OC)c1O | 78 to 79
5 | CC1(C(=O)NCc2cccs2)CCCCC1 | 72 to 73
6 | O=C(O)C1Cc2ccsc2S1(=O)=O (stereo not given) | 189 to 193
7 | CCCCCCCCCCCCSC(=S)SSC(=S)SCCCCCCCCCCCC | 33 to 35
8 | O=C(O)CCOc1cccc(CCNC(=O)C2Cc3ccccc3N2S(=O)(=O)c2ccc(-c3cccc(C(F)(F)F)c3)cc2)c1 (stereo not given) | 78
9 | COC(=O)C(Cc1ccc(Cl)cc1)NC(=O)C1CCC(CNC(=O)OC(C)(C)C)CC1 (stereo not given) | 178 to 179
10 | COc1ccc2c(c1CC#N)Sc1c(ccc(OC)c1CN1C(=O)c3ccccc3C1=O)N2Cc1ccccc1 | 230
11 | CC(C)COC(=O)N=C(N=C1NC(=O)C(=O)N1c1ccc(Cl)c(Cl)c1)NC(C)C | 260
12 | Clc1ccc(COc2ccc(-c3nc(COc4ccc(CCCn5ccnc5)cc4)co3)cc2)cc1 | 151 to 152
13 | O=C(OCc1ccccc1[N+](=O)[O-])C(F)(F)C(F)(F)C(F)(F)C(F)(F)C(F)(F)C(F)(F)C(F)(F)F | 34 to 35
14 | CN1CCN(C(=O)c2ccc(-c3cnc4c(c3)N(Cc3cc(F)ccc3F)CCN4)cc2)CC1 | 180
15 | CCOCCOCCOc1ccc(C(=O)OC)cc1F | 33 to 36.5
16 | C=CCOc1ccccc1OCC(O)CNC1CCC(NC(=O)NCC)CC1 (stereo not given) | 159 to 160
17 | CCCCOC(=O)c1ccc(Nc2nc(Nc3ccc(C(=O)OCCCC)cc3)nc(-c3cccn3Cc3ccccc3)n2)cc1 | 173 to 174
18 | CCc1c(C(=O)c2cc(C)cc(C)c2)n(CC=C(C)C)c(=O)[nH]c1=O | 255 to 260
19 | CC(=O)Oc1ccc(CCCC2CC(=O)OC(=O)C2)cc1 | 55 to 57
20 | CCC(O)c1c(S(N)(=O)=O)nn(C)c1C(C)(C)C (stereo not given) | 113 to 115
21 | COC(=O)Cc1csc(NC(C)=O)n1 | 122 to 123

Row | SMILES | melting point [°C]
22 | NC(=O)CC(=S)N1CCCC1 | 110 to 120
23 | CN1C2CCC1CC(O)(c1ccc(C(F)(F)F)cc1)C2 (stereo not given) | 189 to 190
24 | O=C(Nc1cccc(S(=O)(=O)NCc2ccncc2)c1)c1cnn2c(C(F)F)cc(-c3ccc(C(F)(F)F)cc3)nc12 | 221
25 | COC(=O)CCNC(=O)c1cc(NC(=O)c2ccc(C(=N)NC(=O)OC(C)(C)C)cc2)ccc1O | 177 to 179
26 | Oc1ccc(Cl)cc1I | 79 to 82
27 | COc1ccc(CNc2nnc(Cl)c3ccc([N+](=O)[O-])cc23)cc1Cl | 217 to 218
28 | CCCCN(C1CS(=O)(=O)c2cc([N+](=O)[O-])ccc21)S(C)(=O)=O (stereo not given) | 52 to 55
29 | O=c1[nH]c2c(n(O)c1=O)C1=C(CCC(n3ccc(CN4CCN(c5ccc([N+](=O)[O-])cc5)CC4)c3)=C1)CC2 | > 230
30 | COc1ccc(C(CCC(=O)c2ccccc2)C(=O)c2ccc(OCc3ccccc3)cc2)cc1 (stereo not given) | 76 to 78
31 | O=C(c1c[nH]c2cc(C(F)(F)F)ccc12)C(F)(F)F | 250 to 251
32 | COc1cc2c(cc1SC)CCN(C(C)=O)CC2 | 138 to 140
33 | O=C(Nc1ccc(C(F)(F)F)cc1)c1ccccc1SSc1ccccc1C(=O)Nc1ccc(C(F)(F)F)cc1 | 272 to 275
34 | O=C(Nc1ccc(-n2nc(C(F)(F)F)cc2C(F)(F)F)cc1)c1ccc(CO)cc1 | 213 to 214
35 | O=C1CC(c2ccc(Cl)cc2)CO1 (stereo not given) | 52 to 54
36 | COc1cc(CC(=O)Nc2ccc(C3(CC(=O)O)CCCC3)cc2)ccc1NC(=O)Nc1ccccc1C | 223 to 226
37 | O=C(O)CCc1ccc(O)c(C=Nc2cc(S(=O)(=O)O)ccc2O)c1 | > 275
38 | CC(=O)C1C(C)CC2C3CCC4CC(O)CCC4(C)C3C(=O)CC21C (stereo not given) | 138 to 140
39 | CN(C)c1c(F)c(F)c(F)c(F)c1C(=O)O | 90 to 100
40 | O=C1NC(=O)C(=Cc2ccc(SCCc3ccc(Cl)cc3)cc2)S1 | 215 to 225
41 | CC(C)(C)C1CC=C(c2cc(C(F)(F)F)cc3[nH]c(N4CCN(c5ncccc5C(F)(F)F)CC4)nc23)CC1 (stereo not given) | 96 to 97.7
42 | CN(C)C(=O)ON=C1COCS1 | 87.5 to 88

Continued, values first:

Row | melting point [°C] | SMILES
43 | 138 to 146 | CS(=O)(=O)c1ccc(Cl)cc1C(=O)O
44 | 149 | COC(=O)c1ccn2cc(C)nc2c1
45 | 108 | Cc1ccc(O)c(-c2cc3ccccn3n2)c1
46 | 110 | COc1ccc(Cn2c(-c3cc(OC)c(OC)c(OC)c3)nc3ccccc32)cc1
47 | 134 to 136 | CC(C)(OCc1cc2cc(C(F)(F)F)ccc2n1S(=O)(=O)c1ccccc1)C(=O)O
48 | 108 to 110 | CC[C@@H](c1ccccc1)N(Cc1ccc(CN)cc1)S(=O)(=O)c1ccc(Cl)cc1
49 | 243 to 244 | O=S(=O)(Nc1ccccc1Oc1cccc2cccnc12)c1ccc(F)cc1
50 | 172 to 174 | CC(=O)Nc1cc(C(=O)OCCN2CCCCC2)c2oc(-c3ccccc3)cc2c1
51 | 174 to 175 | O=C(O)CCC(O)c1ccc(-c2ccccc2F)cc1 (stereo not given)
52 | 67 to 68 | CCOC(=O)C(Br)=C(Br)c1ccc(Cl)cc1
53 | 207 to 208 | CC1(C)OC(=O)N(c2ccc(F)c(F)c2)c2ccccc21
54 | 247 to 248 | Cn1cc(S(C)(=O)=O)c(=O)c2ccc(C(C)(C)C)cc21
55 | 112 to 115 | COCCCCC(O)(c1ccccc1)c1ccccc1
56 | 161 to 163 | CC(C)(C)CCNC(=O)CN1C(=O)C2(COc3cc4c(cc32)CCO4)c2ccccc21 (stereo not given)
57 | 85 to 90 | CN1C(=O)C(c2cccc(C#Cc3ccccc3)c2)(c2cc(C=O)n(CCCF)c2)N=C1N (stereo not given)
58 | 106 to 107 | COc1cc(O)nc(N)n1
59 | 94 to 96 | CC(C)NCC(O)COc1cccc(Cl)c1Cl (stereo not given)
60 | 215 to 220 | CCCNC(=O)C(C#N)=C1Nc2ccccc2O1
61 | 142 to 145 | CS(=O)(=O)N(Cc1cncnc1)c1ccc(F)cc1F
62 | 203 to 205 | Cc1ccc(C(=O)NCCCn2ccnc2)c(Nc2ccc3cn[nH]c3c2)n1

Row | melting point [°C] | SMILES
63 | 98 to 100 | COc1ccccc1N1CCN(C(=O)NCCN(C)C)CC1
64 | 125 to 127 | COc1ccc(NC=O)c(C=O)c1
65 | 125 to 128 | COc1cc([N+](=O)[O-])ccc1-c1cncs1
66 | 172 to 174 | O=C1OC(=O)[C@H](Cc2ccccc2)C[C@H]1Cc1ccccc1
67 | 192 to 193 | CC(C)n1nc(-c2sc(C(=O)NCc3ccncc3)nc2-c2ccccc2)ccc1=O
68 | 197 to 200 | CC(C(O)c1ccc2nc(N)sc2c1)N1CCC(Cc2ccccc2)CC1 (stereo not given)
69 | 180 to 182 | CCCCc1nc2cc(C(=O)O)ccc2n1Cc1ccc(-c2ccccc2-c2nnn[nH]2)cc1
70 | 131 to 134 | CS(=O)(=O)Nc1ccc(C(=O)CN(Cc2ccccc2)Cc2ccccc2)cc1
71 | 40 to 40.5 | CCOC(=O)c1ccc(C(F)(F)F)c(Br)n1
72 | 117 to 119 | CCN(CC)CCN1Cc2nc3ccccc3c(=O)n2-c2ccccc2C1=O
73 | 286 to 287 | CCOC(=O)c1c[nH]c2nc(NCc3ccc(Br)cc3)nn2c1=O
74 | 184 to 185 | CCS(=O)(=O)CCC(=O)NNC(=O)N1Cc2cc(Cl)ccc2Oc2ccccc21
75 | 121 to 123 | CC(C)(C)C(=O)c1ccc(C(=O)NC(=O)c2ccccc2)cc1
76 | 201 to 206 | Cn1nc(C(=O)NCc2ccc(Cl)cc2)c(=O)c2cc(C#CCO)cnc21
77 | 158 to 160 | O=C1Cc2cccc(Oc3cccc4ccccc34)c2N1
78 | 77 to 79 | CC(C(=O)O)c1ccc(-c2ccc(F)cc2Br)cc1 (stereo not given)
79 | 135 to 137 | O=C1Nc2cccnc2N(C(=O)NCCN2CCCC(CN3CCCCCC3)C2)c2ccccc21 (stereo not given)
80 | 168 to 170 | CC(=O)Nc1nc(Oc2ccccc2)nc2nc(-c3ccco3)nn12
81 | 162 to 165 | NCc1ccccc1C(=O)N[C@H]1CN(S(=O)(=O)O)C1=O
82 | 161 to 163 | O=C(O)Cc1ccc(C2CCCCC2)c2ccccc12

Row | melting point [°C] | SMILES
83 | 111 to 112 | COC(=O)/C(=C/c1ccc(OCCN(C)c2nc3ccccc3o2)cc1)OCC(=O)O
84 | 55 to 85 | CCc1c(C)noc1NS(=O)(=O)c1cccc2c(N(C)C)cccc12
85 | 116 | CCOC(=O)N1C(C)=CC(C(=O)OCC)(c2cccc(OCC3CO3)c2)C=C1C (stereo not given)
86 | 72 to 74 | COc1cccc2c1Sc1cc(Cl)ccc1C2
87 | 102 | Cc1nc2ccccc2n1C
88 | 123 | CCCCc1ncc(CCNC(CCc2ccccc2)C(=O)O)n1Cc1ccccc1Cl (stereo not given)
89 | 192 to 194 | COc1cc2ncc(C#N)c(Nc3ccc(F)c(Cl)c3)c2cc1-n1cccc1
90 | 191 to 192 | Cc1oc(-c2ccccc2)nc1C=Cc1ccc(/C=C/C=O)cc1
91 | 98 to 108 | CCOC(=O)c1ccc(N=C(Nc2ccc(C(=O)OCC)cc2)c2ccccc2Cl)cc1
92 | 116 to 118 | CN(C)S(=O)(=O)c1ccc(Oc2ccc([N+](=O)[O-])cc2)cc1
93 | 164 to 165 | COc1cncnc1N1CCN(CCCc2c[nH]c3ccc(CN(C)S(C)(=O)=O)cc23)CC1
94 | 120 to 122 | c1cnc2ccc(Cn3nnc4ccc(-c5ccc6[nH]ccc6c5)nc43)cc2c1
95 | 84 to 85 | COc1cc(NCCCCCCN2C(=O)c3ccccc3C2=O)c2nccc(C)c2c1
96 | 116 to 120 | S=C1CC(c2ccc(Cl)cc2)Oc2ccccc21 (stereo not given)
97 | 279 to 280 | Cn1c2ccccc2c2c(N)c3c(nc21)C=CC3=O
98 | 175 to 177 | O=[N+]([O-])c1ccc2nc(N3CCNCC3)cc(Cl)c2c1
99 | 123 to 125 | Cc1ccc(-c2ccccc2-c2n[nH]c(=O)o2)cc1
100 | 106 to 107 | COc1ccc(C(=C2CCCCC2)c2ccc(OC)cc2)cc1
